Starred links: 1 amine or outer side, 2 acyl side, 3 side chain; linkers in the order of their positions; H or OH if unused. Positions of bridges follow the written chain, without caps; N, C: chain ends. Non-standard residues stand in square brackets, D forms with d. Residues, ends and D or L forms follow the SMILES beside them. *: point of attachment. JQ1acid = Cc1sc2c(c1C)C(c1ccc(Cl)cc1)=N[C@@H](CC(=O)*)c1nnc(C)n1-2; dPhg(4-(4-Me-thiazol-5-yl)) = Cc1ncsc1-c1ccc([C@@H](N)C(=O)O)cc1; Phg(4-(4-Me-thiazol-5-yl)) = Cc1ncsc1-c1ccc([C@H](N)C(=O)O)cc1; X3 = Cc1ncsc1-c1ccc(C(N[*:1])C(=O)[*:2])cc1; dBip = N[C@H](Cc1ccc(-c2ccccc2)cc1)C(=O)O; Hyp = O=C(O)[C@@H]1C[C@@H](O)CN1; Tle = CC(C)(C)[C@H](N)C(=O)O; d(hCys) = N[C@H](CCS)C(=O)O; dDab = NCC[C@@H](N)C(=O)O; dNMeC = CN[C@H](CS)C(=O)O; dDap = NC[C@@H](N)C(=O)O; Dap = NC[C@H](N)C(=O)O; AEA = NCCOCC(=O)O; βAla = NCCC(=O)O
What follows are compounds tested against T1, BRD4 (Homo sapiens, UniProt O60885) (assay: BRD4 degradation assay in EOL1 cells (immunofluorescence imaging)). Conditions: EoL-1 eosinophilic leukemia cells, 4 hours treatment, nuclear BRD4 immunofluorescence.
T1 construct: Mean 488 intensity of BRD4 quantitated in nuclear region; endogenous in cells; host or cells: EoL-1 eosinophilic leukemia cells
Type: cell-based
Description: BRD4 Degradation Assay in EOL1 Cells
EoL-1 eosinophilic leukemia cells were seeded on day 1 at a density of 45,000 cells per well in Corning PureCoat Amine Microplates, (Corning #354719) in 45 μL/well of assay media (RPMI, 10% FBS, containing L-glutamine). After cells attached to cell plate, compounds were serially diluted ⅓ in dimethylsulfoxide (DMSO) to create 20-point dilutions across a 384 well v-bottom polypropylene microplate (Greiner #781091). 2 μL of each sample from the serial dilution was transferred to 98 μL of assay media as an intermediate dilution. 5 μL of each well of the intermediate dilution was added to 45 μL of cell plate. Columns 1, 2, 23 and 24 were treated with only 0.2% final concentration of DMSO for data normalization as “neutral controls”. After compound treatment, cell plates were stored in a 37° C. incubator for 4 hours. After 4 hours cells were fixed in 3.7% w/v final concentration of paraformaldehyde by addition of 15 μL of 16% w/v paraformaldehyde (Electron Microscopy Sciences #15710-S) directly to the 50 μL media and compound in the cell plate. Cell plate was incubated at RT for 20 minutes. Well contents were aspirated and washed with 100 μL/well PBS 3 times. 50 ul/well of phosphate Buffered Saline (PBS) (pH 7.5) containing 0.5% w/v bovine serum albumen, 0.5% w/v Triton X-100 (Block/Permeabilization Buffer) was added to each well. Samples were incubated for 20 minutes. Well contents were aspirated and washed 3 times with 100 μL/well of PBS. PBS was aspirated from the well and 50 μL per well of EoL-1 Block Buffer (PBS containing 10% Normal Goat Serum (AbCam #ab7481)) was added to each well. Plates were incubated at room temperature for 30 minutes. Block buffer was decanted from the wells. Immunofluorescence staining of BRD4 was carried out by diluting mAB Anti-BRD4 [EPR5150] antibody (Abcam 128874) 1:500 into Antibody Dilution Buffer (PBS, 2% Normal Goat Serum). 25 μL per well of BRD4 antibody diluted in buffer was added and incubated overnight at 4° C.
On day-2 samples were washed 3 times with 100 μL/well of PBS. 25 μL/well of secondary antibody solution (Goat Anti-Rabbit IgG, DyLight 488 Conjugated Highly Cross-adsorbed Thermo Fisher #35553) and Hoechst 33342 1 μg/ml diluted in Antibody Dilution Buffer) were dispensed into each well. Hoechst 33342 only was added to bottom 3 columns for data normalization as “inhibitor controls”. Samples were incubated for 2 hours at room temperature. Samples were washed 3 times with 100 μL PBS. Quantitative fluorescence imaging of BRD4 was carried out using an Opera Phenix High-Content Screening System. Fluorescent images of the samples were captured using 488 nm and 405 nm channels. Hoechst channel was used to identify nuclear region. Mean 488 intensity of BRD4 quantitated in nuclear region. Data analysis was carried out using Genedata Screener, with DMSO and no primary antibody control treated samples being used to define the 0% and 100% changes in BRD4. The dose-response log(inhibitor) vs. response used to define the inflexion point of curve (DC50) and the plateau of the maximal effect.
The individual topological polar surface area (TPSA) and cLogP values were calculated using Chemdraw v. 15.1 (PerkinElmer). Half life of the ternary VHL/BD1 and VHL/BD2 complexes, DC50 of BRD4 in EOL1 cells, topological polar surface area of a molecule (TPSA) and c log P (lipophilicity) for compounds described herein are provided in Table 3.

Row | SMILES | DC50
1 | Cc1ncsc1-c1ccc([C@@H]2NC(=O)[C@@H]3C[C@@H](O)CN3C(=O)[C@H](C(C)(C)C)NC(=O)CSC[C@H](C(N)=O)NC(=O)[C@@H](CNC(=O)C[C@@H]3N=C(c4ccc(Cl)cc4)c4c(sc(C)c4C)-n4c(C)nnc43)NC(=O)CNC2=O)cc1 [Compound 2] ({CH2CO}-[Tle][Hyp][Phg(4-(4-Me-thiazol-5-yl))]G[dDap](JQ1acid)[dC]-NH2; thioether N-6) | > 20 µM
2 | Cc1sc2c(c1C)C(c1ccc(Cl)cc1)=N[C@@H](CC(=O)NC[C@H]1NC(=O)CNC(=O)[C@@H](C)NC(=O)[C@@H]3C[C@@H](O)CN3C(=O)[C@H](C(C)(C)C)NC(=O)CSC[C@H](C(N)=O)NC1=O)c1nnc(C)n1-2 [Compound 8] ({CH2CO}-[Tle][Hyp][dA]G[dDap](JQ1acid)[dC]-NH2; thioether N-6) | < 20 µM
3 | Cc1ncsc1-c1ccc([C@H]2NC(=O)[C@@H]3C[C@@H](O)CN3C(=O)[C@H](C(C)(C)C)NC(=O)CSC[C@H](C(N)=O)NC(=O)[C@@H](CCNC(=O)C[C@@H]3N=C(c4ccc(Cl)cc4)c4c(sc(C)c4C)-n4c(C)nnc43)NC(=O)CNC2=O)cc1 [Compound 9] ({CH2CO}-[Tle][Hyp][dPhg(4-(4-Me-thiazol-5-yl))]G[dDab](JQ1acid)[dC]-NH2; thioether N-6) | > 20 µM
4 | Cc1ncsc1-c1ccc([C@@H]2NC(=O)[C@@H]3C[C@@H](O)CN3C(=O)[C@H](C(C)(C)C)NC(=O)CSC[C@H](C(N)=O)NC(=O)[C@@H](CCNC(=O)C[C@@H]3N=C(c4ccc(Cl)cc4)c4c(sc(C)c4C)-n4c(C)nnc43)NC(=O)CNC2=O)cc1 [Compound 10] ({CH2CO}-[Tle][Hyp][Phg(4-(4-Me-thiazol-5-yl))]G[dDab](JQ1acid)[dC]-NH2; thioether N-6) | > 20 µM
5 | Cc1ncsc1-c1ccc([C@H]2NC(=O)[C@@H]3C[C@@H](O)CN3C(=O)[C@H](C(C)(C)C)NC(=O)CSC[C@H](C(=O)NCC(=O)NCC(=O)NCC(N)=O)NC(=O)[C@@H](CNC(=O)C[C@@H]3N=C(c4ccc(Cl)cc4)c4c(sc(C)c4C)-n4c(C)nnc43)NC(=O)CNC2=O)cc1 [Compound 11] ({CH2CO}-[Tle][Hyp][dPhg(4-(4-Me-thiazol-5-yl))]G[dDap](JQ1acid)[dC]GGG-NH2; thioether N-6) | > 20 µM
6 | Cc1ncsc1-c1ccc([C@H]2NC(=O)[C@@H]3C[C@@H](O)CN3C(=O)[C@H](C(C)(C)C)NC(=O)CSC[C@H](C(N)=O)NC(=O)[C@@H](CNC(=O)C[C@@H]3N=C(c4ccc(Cl)cc4)c4c(sc(C)c4C)-n4c(C)nnc43)NC(=O)[C@H](C)NC2=O)cc1 [Compound 12] ({CH2CO}-[Tle][Hyp][dPhg(4-(4-Me-thiazol-5-yl))]A[dDap](JQ1acid)[dC]-NH2; thioether N-6) | > 20 µM
7 | Cc1ncsc1-c1ccc([C@H]2NC(=O)[C@@H]3C[C@@H](O)CN3C(=O)[C@H](C(C)(C)C)NC(=O)CSC[C@H](C(N)=O)NC(=O)[C@H](CNC(=O)C[C@@H]3N=C(c4ccc(Cl)cc4)c4c(sc(C)c4C)-n4c(C)nnc43)NC(=O)CNC2=O)cc1 [Compound 13] ({CH2CO}-[Tle][Hyp][dPhg(4-(4-Me-thiazol-5-yl))]G[Dap](JQ1acid)[dC]-NH2; thioether N-6) | > 20 µM
8 | Cc1ncsc1-c1ccc([C@@H]2NC(=O)[C@@H]3C[C@@H](O)CN3C(=O)[C@H](C(C)(C)C)NC(=O)CSC[C@H](C(N)=O)NC(=O)[C@H](CNC(=O)C[C@@H]3N=C(c4ccc(Cl)cc4)c4c(sc(C)c4C)-n4c(C)nnc43)NC(=O)CNC2=O)cc1 [Compound 14] ({CH2CO}-[Tle][Hyp][Phg(4-(4-Me-thiazol-5-yl))]G[Dap](JQ1acid)[dC]-NH2; thioether N-6) | > 20 µM
9 | Cc1ncsc1-c1ccc([C@H]2NC(=O)[C@@H]3C[C@@H](O)CN3C(=O)[C@H](C(C)(C)C)NC(=O)CSC[C@H](C(N)=O)N(C)C(=O)[C@@H](CNC(=O)C[C@@H]3N=C(c4ccc(Cl)cc4)c4c(sc(C)c4C)-n4c(C)nnc43)NC(=O)CNC2=O)cc1 [Compound 15] ({CH2CO}-[Tle][Hyp][dPhg(4-(4-Me-thiazol-5-yl))]G[dDap](JQ1acid)[dNMeC]-NH2; thioether N-6) | < 20 µM
10 | Cc1ncsc1-c1ccc([C@H]2NC(=O)[C@@H]3C[C@@H](O)CN3C(=O)[C@H](C(C)(C)C)NC(=O)COCCNC(=O)[C@@H](CNC(=O)C[C@@H]3N=C(c4ccc(Cl)cc4)c4c(sc(C)c4C)-n4c(C)nnc43)NC(=O)CNC2=O)cc1 [Compound 16] (cyclo([AEA][Tle][Hyp][dPhg(4-(4-Me-thiazol-5-yl))]G[dDap](JQ1acid))) | < 1 µM
11 | Cc1ncsc1-c1ccc([C@@H]2NC(=O)[C@@H]3C[C@@H](O)CN3C(=O)[C@H](C(C)(C)C)NC(=O)COCCNC(=O)[C@@H](CNC(=O)C[C@@H]3N=C(c4ccc(Cl)cc4)c4c(sc(C)c4C)-n4c(C)nnc43)NC(=O)CNC2=O)cc1 [Compound 17] (cyclo([AEA][Tle][Hyp][Phg(4-(4-Me-thiazol-5-yl))]G[dDap](JQ1acid))) | < 1 µM

Results, then the compound that gave them:

Row | DC50 | SMILES
12 | < 1 µM | Cc1ncsc1-c1ccc([C@H]2NC(=O)[C@@H]3C[C@@H](O)CN3C(=O)[C@H](C(C)(C)C)NC(=O)CSC[C@H](C(N)=O)NC(=O)[C@@H](CNC(=O)C[C@@H]3N=C(c4ccc(Cl)cc4)c4c(sc(C)c4C)-n4c(C)nnc43)NC(=O)CNC2=O)cc1 [Compound 1] ({CH2CO}-[Tle][Hyp][dPhg(4-(4-Me-thiazol-5-yl))]G[dDap](JQ1acid)[dC]-NH2; thioether N-6)
13 | < 1 µM | Cc1ncsc1-c1ccc(C2NC(=O)[C@@H]3C[C@@H](O)CN3C(=O)[C@H](C(C)(C)C)NC(=O)CSCC[C@H](C(N)=O)NC(=O)[C@@H](CNC(=O)C[C@@H]3N=C(c4ccc(Cl)cc4)c4c(sc(C)c4C)-n4c(C)nnc43)NC(=O)CNC2=O)cc1 (stereo partly drawn) [Compound 3] ({CH2CO}-[Tle][Hyp][X3]G[dDap](JQ1acid)[d(hCys)]-NH2; thioether N-6)
14 | < 20 µM | Cc1ncsc1-c1ccc(C2NC(=O)[C@@H]3C[C@@H](O)CN3C(=O)[C@H](C(C)(C)C)NC(=O)CSC[C@H](C(N)=O)NC(=O)[C@@H](CNC(=O)C[C@@H]3N=C(c4ccc(Cl)cc4)c4c(sc(C)c4C)-n4c(C)nnc43)NC(=O)CCNC2=O)cc1 (stereo partly drawn) [Compound 4] ({CH2CO}-[Tle][Hyp][X3][βAla][dDap](JQ1acid)[dC]-NH2; thioether N-6)
15 | < 20 µM | Cc1ncsc1-c1ccc([C@H]2NC(=O)[C@@H]3C[C@@H](O)CN3C(=O)[C@H](C(C)(C)C)NC(=O)CSCC[C@H](C(N)=O)NC(=O)[C@@H](CNC(=O)C[C@@H]3N=C(c4ccc(Cl)cc4)c4c(sc(C)c4C)-n4c(C)nnc43)NC(=O)CCNC2=O)cc1 [Compound 5] ({CH2CO}-[Tle][Hyp][dPhg(4-(4-Me-thiazol-5-yl))][βAla][dDap](JQ1acid)[d(hCys)]-NH2; thioether N-6)
16 | < 20 µM | Cc1ncsc1-c1ccc([C@H]2NC(=O)[C@@H]3C[C@@H](O)CN3C(=O)[C@H](C(C)(C)C)NC(=O)CNC(=O)[C@H](CCC(N)=O)NC(=O)[C@@H](CNC(=O)C[C@@H]3N=C(c4ccc(Cl)cc4)c4c(sc(C)c4C)-n4c(C)nnc43)NC(=O)CNC2=O)cc1 [Compound 6] (cyclo(G[Tle][Hyp][dPhg(4-(4-Me-thiazol-5-yl))]G[dDap](JQ1acid)Q))
17 | < 20 µM | Cc1ncsc1-c1ccc([C@@H]2NC(=O)[C@@H]3C[C@@H](O)CN3C(=O)[C@H](C(C)(C)C)NC(=O)CNC(=O)[C@H](CCC(N)=O)NC(=O)[C@@H](CNC(=O)C[C@@H]3N=C(c4ccc(Cl)cc4)c4c(sc(C)c4C)-n4c(C)nnc43)NC(=O)CNC2=O)cc1 [Compound 7] (cyclo(G[Tle][Hyp][Phg(4-(4-Me-thiazol-5-yl))]G[dDap](JQ1acid)Q))
18 | < 1 µM | Cc1sc2c(c1C)C(c1ccc(Cl)cc1)=N[C@@H](CC(=O)NC[C@H]1NC(=O)CNC(=O)[C@@H](Cc3ccc(-c4ccccc4)cc3)NC(=O)[C@@H]3C[C@@H](O)CN3C(=O)[C@H](C(C)(C)C)NC(=O)CSC[C@H](C(N)=O)NC1=O)c1nnc(C)n1-2 [Compound 18] ({CH2CO}-[Tle][Hyp][dBip]G[dDap](JQ1acid)[dC]-NH2; thioether N-6)
